The test system of assay [1] is Methicillin Resistant Staphylococcus aureus strain USA 200. The experiment in a line: Minimum inhibitory concentration (MIC), CLSI broth micro-dilution, S. aureus. Particulars: Staphylococcus aureus, MRSA / USA200; Table 6; MRSA USA 200; cation adjusted Mueller Hinton Broth + 0.002% Tween-80; 35° C., 22 hours. Type of assay: cell-based. In outline: (§1)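 Colonies grown 20 h at 35° C on Trypticase Soy agar (MRSA) or Luria agar (E. coli) were suspended in cation-adjusted Mueller Hinton broth with 0.002% Tween-80. Suspensions were added at OD600 0.0005 to 10-point twofold compound dilutions, then incubated 22 h at 35° C.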

Assay [2] relates to Escherichia coli ATCC 25922. As to the kind of experiment: Minimum inhibitory concentration (MIC), CLSI broth micro-dilution, E. coli. Format: cell-based. Particulars: Escherichia coli, ATCC25922, 22 h, Table 6, cation adjusted Mueller Hinton Broth + 0.002% Tween-80, 35° C. The gist of the method: as §1

As to `Cc1nc(-c2ccc(C(C)(C)c3ccccc3)cc2)ncc1C(=O)N[C@@H](CCN)C(=O)N(C)[C@@H]1C(=O)N[C@@H](C)C(=O)N[C@H](C(=O)NCC#N)Cc2ccc(OCCN)c(c2)-c2cc1ccc2OCCN` (racemic) [Compound 236, rac-(8S,11S,14S)-3,18-bis(2-aminoethoxy)-N-(cyanomethyl)-11-methyl-14-[methyl-[rac-(2S)-4-amino-2-[[4-methyl-2-[4-(1-methyl-1-phenyl-ethyl)phenyl]pyrimidine-5-carbonyl]amino]butanoyl]amino]-10,13-dioxo-9,12-diazatricyclo[13.3.1.12,6]icosa-1(18),2(20),3,5,15(19),16-hexaene-8-carboxamide], the MIC came to 0.016 µM in assay [1] and 0.13 µM in assay [2].
The corresponding values for `Cc1nc(-c2cccc(C(C)(C)C)c2)ncc1C(=O)N[C@@H](CCN)C(=O)N(C)[C@@H]1C(=O)N[C@@H](C)C(=O)N[C@H](C(=O)NCC#N)Cc2ccc(OCCN)c(c2)-c2cc1ccc2OCCN` (racemic) [Compound 237, rac-(8S,11S,14S)-3,18-bis(2-aminoethoxy)-N-(cyanomethyl)-11-methyl-14-[methyl-[rac-(2S)-4-amino-2-[[2-(3-tert-butylphenyl)-4-methyl-pyrimidine-5-carbonyl]amino]butanoyl]amino]-10,13-dioxo-9,12-diazatricyclo[13.3.1.12,6]icosa-1(18),2(20),3,5,15(19),16-hexaene-8-carboxamide] are 0.0083 µM and 0.27 µM.
For `Cc1nc(-c2ccc(C3(C)COC3)cc2)ncc1C(=O)N[C@@H](CCN)C(=O)N(C)[C@@H]1C(=O)N[C@@H](C)C(=O)N[C@H](C(=O)NCC#N)Cc2ccc(OCCN)c(c2)-c2cc1ccc2OCCN` (racemic) [Compound 238, rac-(8S,11S,14S)-3,18-bis(2-aminoethoxy)-N-(cyanomethyl)-11-methyl-14-[methyl-[rac-(2S)-4-amino-2-[[4-methyl-2-[4-(3-methyloxetan-3-yl)phenyl]pyrimidine-5-carbonyl]amino]butanoyl]amino]-10,13-dioxo-9,12-diazatricyclo[13.3.1.12,6]icosa-1(18),2(20),3,5,15(19),16-hexaene-8-carboxamide] the same measures were 0.53 µM and 2.1 µM.
The corresponding values for `Cc1nc(-c2ccc(C3C4CC5CC(C4)CC3C5)cc2)ncc1C(=O)N[C@@H](CCN)C(=O)N(C)[C@@H]1C(=O)N[C@@H](C)C(=O)N[C@H](C(=O)NCC#N)Cc2ccc(OCCN)c(c2)-c2cc1ccc2OCCN` (mixture of isomers) [Compound 239, rac-(8S,11S,14S)-3,18-bis(2-aminoethoxy)-N-(cyanomethyl)-11-methyl-14-[methyl-[rac-(2S)-2-[[2-[4-(2-adamantyl)phenyl]-4-methyl-pyrimidine-5-carbonyl]amino]-4-amino-butanoyl]amino]-10,13-dioxo-9,12-diazatricyclo[13.3.1.12,6]icosa-1(18),2(20),3,5,15(19),16-hexaene-8-carboxamide] are 0.015 µM and 0.12 µM.
Consider `CCCCCCCc1ccc(-c2ncc(C(=O)N[C@@H](CCN)C(=O)N(C)[C@@H]3C(=O)N[C@@H](C)C(=O)N[C@H](C(=O)NCC#N)Cc4ccc(OCCN)c(c4)-c4cc3ccc4OCCN)c(C)n2)cc1` (racemic) [Compound 240, rac-(8S,11S,14S)-3,18-bis(2-aminoethoxy)-N-(cyanomethyl)-11-methyl-14-[methyl-[rac-(2S)-4-amino-2-[[2-(4-heptylphenyl)-4-methyl-pyrimidine-5-carbonyl]amino]butanoyl]amino]-10,13-dioxo-9,12-diazatricyclo[13.3.1.12,6]icosa-1(18),2(20),3,5,15(19),16-hexaene-8-carboxamide], for which the minimum inhibitory concentration (MIC) in assay [1] was 0.012 µM; in assay [2] it was 0.13 µM.
As for `CCCCOc1ccc(-c2ncc(C(=O)N[C@@H](CCN)C(=O)N(C)[C@@H]3C(=O)N[C@@H](C)C(=O)N[C@H](C(=O)NCC#N)Cc4ccc(OCCN)c(c4)-c4cc3ccc4OCCN)c(C)n2)c(C)c1` (racemic) [Compound 242, rac-(8S,11S,14S)-3,18-bis(2-aminoethoxy)-N-(cyanomethyl)-11-methyl-14-[methyl-[rac-(2S)-4-amino-2-[[2-(4-butoxy-2-methyl-phenyl)-4-methyl-pyrimidine-5-carbonyl]amino]butanoyl]amino]-10,13-dioxo-9,12-diazatricyclo[13.3.1.12,6]icosa-1(18),2(20),3,5,15(19),16-hexaene-8-carboxamide], the MIC worked out at 0.016 µM in assay [1] and 0.39 µM in assay [2].
For `CCCCOc1c(C)cc(-c2ncc(C(=O)N[C@@H](CCN)C(=O)N(C)[C@@H]3C(=O)N[C@@H](C)C(=O)N[C@H](C(=O)NCC#N)Cc4ccc(OCCN)c(c4)-c4cc3ccc4OCCN)c(C)n2)cc1C` (racemic) [Compound 243, rac-(8S,11S,14S)-3,18-bis(2-aminoethoxy)-N-(cyanomethyl)-11-methyl-14-[methyl-[rac-(2S)-4-amino-2-[[2-(4-butoxy-3,5-dimethyl-phenyl)-4-methyl-pyrimidine-5-carbonyl]amino]butanoyl]amino]-10,13-dioxo-9,12-diazatricyclo[13.3.1.12,6]icosa-1(18),2(20),3,5,15(19),16-hexaene-8-carboxamide] the same measures were 0.008 µM and 0.13 µM.
In the case of `Cc1nc(-c2ccc(OC(C)C)cc2)ncc1C(=O)N[C@@H](CCN)C(=O)N(C)[C@@H]1C(=O)N[C@@H](C)C(=O)N[C@H](C(=O)NCC#N)Cc2ccc(OCCN)c(c2)-c2cc1ccc2OCCN` (racemic) [Compound 246, rac-(8S,11S,14S)-3,18-bis(2-aminoethoxy)-N-(cyanomethyl)-11-methyl-14-[methyl-[rac-(2S)-4-amino-2-[[2-(4-isopropoxyphenyl)-4-methyl-pyrimidine-5-carbonyl]amino]butanoyl]amino]-10,13-dioxo-9,12-diazatricyclo[13.3.1.12,6]icosa-1(18),2(20),3,5,15(19),16-hexaene-8-carboxamide], the values for the MIC in assay [1] and in assay [2] were 0.067 µM and 0.4 µM, respectively.
For `CCCCOc1ccc(-c2ncc(C(=O)N[C@@H](CCN)C(=O)N(C)[C@@H]3C(=O)N[C@@H](C)C(=O)N[C@H](C(=O)NCC#N)Cc4ccc(OCCN)c(c4)-c4cc3ccc4OCCN)c(C)n2)cc1Cl` (racemic) [Compound 247, rac-(8S,11S,14S)-3,18-bis(2-aminoethoxy)-N-(cyanomethyl)-11-methyl-14-[methyl-[rac-(2S)-4-amino-2-[[2-(4-butoxy-3-chloro-phenyl)-4-methyl-pyrimidine-5-carbonyl]amino]butanoyl]amino]-10,13-dioxo-9,12-diazatricyclo[13.3.1.12,6]icosa-1(18),2(20),3,5,15(19),16-hexaene-8-carboxamide] the same measures were 0.016 µM and 0.19 µM.
As for `CCCCCCOc1ccc(-c2ncc(C(=O)N[C@@H](CCN)C(=O)N(C)[C@@H]3C(=O)N[C@@H](C)C(=O)N[C@H](C(=O)NCC#N)Cc4ccc(OCCN)c(c4)-c4cc3ccc4OCCN)c(C)n2)cc1` (racemic) [Compound 248, rac-(8S,11S,14S)-3,18-bis(2-aminoethoxy)-N-(cyanomethyl)-11-methyl-14-[methyl-[rac-(2S)-4-amino-2-[[2-(4-hexoxyphenyl)-4-methyl-pyrimidine-5-carbonyl]amino]butanoyl]amino]-10,13-dioxo-9,12-diazatricyclo[13.3.1.12,6]icosa-1(18),2(20),3,5,15(19),16-hexaene-8-carboxamide], the MIC in assay [1] amounted to 0.016 µM; in assay [2] it was 0.13 µM.

Source of the values: US20260274892A1, “MACROCYCLIC BROAD SPECTRUM ANTIBIOTICS” (RQx Pharmaceuticals, Inc., priority 2017, published 2026).
